Values of other authors in PubChem BioAssay AID1259409 (Chemical Carcinogenesis Research Information System (CCRIS), 2018).
Values joined by “and” are separate entries in the source; they are usually repeats but may differ in a detail not shown here. Equal values may be shown once.

Tested on: rodent chemically induced tumor inhibition, incidence and multiplicity
Experiment: CCRIS tumor inhibitor studies
Details: Route [Inhibitor]: ORAL

Structure (SMILES)	tumour outcome (control, treated, inhibition, significance) (Carcinogen: 7,12-DIMETHYLBENZ[A]ANTHRACENE, 57-97-6, Dose [Inhibitor]: 0.068 MMOL/G IN DIET FOR 8 D BEGINNING 1 WK PRIOR TO CARCINOGEN DOSE (STUDY DURATION: 23 WK), Species: RAT, Strain/Sex: SPRAGUE-DAWLEY/FEMALE, Target Tissue: Type of Lesion: MAMMARY GLAND: TUMOR, Dose [Carcinogen]: 12 MG IN 1.0 ML OLIVE OIL ONCE, Promoter: NONE USED)	tumour outcome (control, treated, inhibition, significance) (Carcinogen: BENZO[A]PYRENE, 50-32-8, Dose [Inhibitor]: 0.034 MMOL/G IN DIET BEGINNING 1 WK PRIOR TO FIRST CARCINOGEN DOSE AND CONTINUING FOR 3 D POST LAST CARCINOGEN DOSE FOR, Species: MOUSE, Strain/Sex: ICR/HA/FEMALE, Target Tissue: Type of Lesion: FORESTOMACH: TUMOR, Dose [Carcinogen]: 1 MG IN 0.2 ML CORN OIL 2/WK FOR 4 WK, Promoter: NONE USED)	tumour outcome (control, treated, inhibition, significance) (Carcinogen: DIETHYLNITROSAMINE, 55-18-5, Dose [Inhibitor]: 0, 125 PPM IN DIET BEGINNING 1 WK POST CARCINOGEN DOSE (STUDY DURATION: 36 WK), Species: RAT, Strain/Sex: F344/MALE, Target Tissue: Type of Lesion: LIVER: TUMOR, Dose [Carcinogen]: 200 MG/KG BW ONCE, Promoter: PHENOBARBITAL, 50-06-6)	tumour outcome (control, treated, inhibition, significance) (Carcinogen: N-METHYL-N'-NITRO-N-NITROSOGUANIDINE, 70-25-7, Dose [Inhibitor]: 0, 100 PPM IN DIET FOR FIRST 25 WK (STUDY DURATION: 55 WK), Species: RAT, Strain/Sex: WISTAR/MALE, Target Tissue: Type of Lesion: DUODENUM: ADENOMA, ADENOCARCINOMA OR SARCOMA, Dose [Carcinogen]: 100 MG/L IN DRINKING WATER FOR FIRST 25 WK, Promoter: GLYOXAL, 107-22-2)	tumour outcome (control, treated, inhibition, significance) (Carcinogen: N-METHYL-N'-NITRO-N-NITROSOGUANIDINE, 70-25-7, Dose [Inhibitor]: 0, 100 PPM IN DIET FOR FIRST 25 WK (STUDY DURATION: 55 WK), Species: RAT, Strain/Sex: WISTAR/MALE, Target Tissue: Type of Lesion: FORESTOMACH: PAPILLOMA, Dose [Carcinogen]: 100 MG/L IN DRINKING WATER FOR FIRST 25 WK, Promoter: GLYOXAL, 107-22-2)	tumour outcome (control, treated, inhibition, significance) (Carcinogen: N-METHYL-N'-NITRO-N-NITROSOGUANIDINE, 70-25-7, Dose [Inhibitor]: 0, 100 PPM IN DIET FOR FIRST 25 WK (STUDY DURATION: 55 WK), Species: RAT, Strain/Sex: WISTAR/MALE, Target Tissue: Type of Lesion: GASTROINTESTINAL TRACT (UPPER): BENIGN OR MALIGNANT TUMOR, Dose [Carcinogen]: 100 MG/L IN DRINKING WATER FOR FIRST 25 WK, Promoter: GLYOXAL, 107-22-2)	tumour outcome (control, treated, inhibition, significance) (Carcinogen: N-METHYL-N'-NITRO-N-NITROSOGUANIDINE, 70-25-7, Dose [Inhibitor]: 0, 100 PPM IN DIET FOR FIRST 25 WK (STUDY DURATION: 55 WK), Species: RAT, Strain/Sex: WISTAR/MALE, Target Tissue: Type of Lesion: GLANDULAR STOMACH: ADENOMA, ADENOCARCINOMA OR SARCOMA, Dose [Carcinogen]: 100 MG/L IN DRINKING WATER FOR FIRST 25 WK, Promoter: GLYOXAL, 107-22-2)	tumour outcome (control, treated, inhibition, significance) (Carcinogen: N-METHYL-N'-NITRO-N-NITROSOUGUANIDINE, 70-25-7, Dose [Inhibitor]: 0, 25 PPM IN DIET FOR THE DURATION OF THE STUDY (STUDY DURATION: 55 WK), Species: RAT, Strain/Sex: WISTAR/MALE, Target Tissue: Type of Lesion: BILE DUCT: CHOLANGIOMA, Dose [Carcinogen]: 100 MG/L IN DRINKING WATER FOR FIRST 25 WK, Promoter: GLYOXAL, 107-22-2)	tumour outcome (control, treated, inhibition, significance) (Carcinogen: N-METHYL-N'-NITRO-N-NITROSOUGUANIDINE, 70-25-7, Dose [Inhibitor]: 0, 25 PPM IN DIET FOR THE DURATION OF THE STUDY (STUDY DURATION: 55 WK), Species: RAT, Strain/Sex: WISTAR/MALE, Target Tissue: Type of Lesion: FORESTOMACH: PAPILLOMA, Dose [Carcinogen]: 100 MG/L IN DRINKING WATER FOR FIRST 25 WK, Promoter: GLYOXAL, 107-22-2)	tumour outcome (control, treated, inhibition, significance) (Carcinogen: N-METHYL-N'-NITRO-N-NITROSOUGUANIDINE, 70-25-7, Dose [Inhibitor]: 0, 25 PPM IN DIET FOR THE DURATION OF THE STUDY (STUDY DURATION: 55 WK), Species: RAT, Strain/Sex: WISTAR/MALE, Target Tissue: Type of Lesion: GASTROINTESTINAL TRACT (UPPER): BENIGN OR MALIGNANT TUMOR, Dose [Carcinogen]: 100 MG/L IN DRINKING WATER FOR FIRST 25 WK, Promoter: GLYOXAL, 107-22-2)	tumour outcome (control, treated, inhibition, significance) (Carcinogen: N-METHYL-N'-NITRO-N-NITROSOUGUANIDINE, 70-25-7, Dose [Inhibitor]: 0, 25 PPM IN DIET FOR THE DURATION OF THE STUDY (STUDY DURATION: 55 WK), Species: RAT, Strain/Sex: WISTAR/MALE, Target Tissue: Type of Lesion: GLANDULAR STOMACH: ADENOMA, ADENOCARCINOMA OR SARCOMA, Dose [Carcinogen]: 100 MG/L IN DRINKING WATER FOR FIRST 25 WK, Promoter: GLYOXAL, 107-22-2)	tumour outcome (control, treated, inhibition, significance) (Carcinogen: N-METHYL-N'-NITRO-N-NITROSOUGUANIDINE, 70-25-7, Dose [Inhibitor]: 0, 100 PPM IN DIET FOR FIRST 25 WK (STUDY DURATION: 55 WK), Species: RAT, Strain/Sex: WISTAR/MALE, Target Tissue: Type of Lesion: BILE DUCT: CHOLANGIOMA, Dose [Carcinogen]: 100 MG/L IN DRINKING WATER FOR FIRST 25 WK, Promoter: GLYOXAL, 107-22-2)	tumour outcome (control, treated, inhibition, significance) (Carcinogen: N-METHYL-N'-NITRO-N-NITROSOUGUANIDINE, 70-25-7, Dose [Inhibitor]: 0, 100 PPM IN DIET FOR FIRST 25 WK (STUDY DURATION: 55 WK), Species: RAT, Strain/Sex: WISTAR/MALE, Target Tissue: Type of Lesion: DUODENUM: ADENOMA, ADENOCARCINOMA OR SARCOMA, Dose [Carcinogen]: 100 MG/L IN DRINKING WATER FOR FIRST 25 WK, Promoter: GLYOXAL, 107-22-2)	tumour outcome (control, treated, inhibition, significance) (Carcinogen: N-METHYL-N'-NITRO-N-NITROSOUGUANIDINE, 70-25-7, Dose [Inhibitor]: 0, 100 PPM IN DIET FOR FIRST 25 WK (STUDY DURATION: 55 WK), Species: RAT, Strain/Sex: WISTAR/MALE, Target Tissue: Type of Lesion: FORESTOMACH: PAPILLOMA, Dose [Carcinogen]: 100 MG/L IN DRINKING WATER FOR FIRST 25 WK, Promoter: GLYOXAL, 107-22-2)	tumour outcome (control, treated, inhibition, significance) (Carcinogen: N-METHYL-N'-NITRO-N-NITROSOUGUANIDINE, 70-25-7, Dose [Inhibitor]: 0, 100 PPM IN DIET FOR FIRST 25 WK (STUDY DURATION: 55 WK), Species: RAT, Strain/Sex: WISTAR/MALE, Target Tissue: Type of Lesion: GASTROINTESTINAL TRACT (UPPER): BENIGN OR MALIGNANT TUMOR, Dose [Carcinogen]: 100 MG/L IN DRINKING WATER FOR FIRST 25 WK, Promoter: GLYOXAL, 107-22-2)	tumour outcome (control, treated, inhibition, significance) (Carcinogen: N-METHYL-N'-NITRO-N-NITROSOUGUANIDINE, 70-25-7, Dose [Inhibitor]: 0, 100 PPM IN DIET FOR FIRST 25 WK (STUDY DURATION: 55 WK), Species: RAT, Strain/Sex: WISTAR/MALE, Target Tissue: Type of Lesion: GLANDULAR STOMACH: ADENOMA, ADENOCARCINOMA OR SARCOMA, Dose [Carcinogen]: 100 MG/L IN DRINKING WATER FOR FIRST 25 WK, Promoter: GLYOXAL, 107-22-2)
COc1cc2ccc(=O)oc2cc1O	100%, 78%, 22%, not significant	100%, 100%, 0%, not significant														
Nc1nc(N)nc(-c2cc(Cl)ccc2Cl)n1			14/14 (100%), 0/15 (0%), 100%, not calculated	6/12 (50%), 4/16 (25%), 50%, not significant	3/12 (25%), 1/16 (6%), 76%, not significant	11/12 (92%), 9/16 (56%), 39%, p<0.05	9/12 (75%), 6/16 (38%), 49%, p<0.05	1/12 (8%), 0/12 (0%), 100%, not significant	3/12 (25%), 1/12 (8%), 68%, not significant	11/12 (92%), 7/12 (58%), 37%, not significant	9/12 (75%), 5/12 (42%), 44%, not significant	1/12 (8%), 0/12 (0%), 100%, not significant and 1/12 (8%), 0/15 (0%), 100%, not significant	6/12 (50%), 4/12 (33%), 34%, not significant and 6/12 (50%), 4/15 (20%), 60%, not significant	3/12 (25%), 3/12 (25%), 0%, not significant and 3/12 (25%), 1/15 (7%), 72%, not significant	11/12 (92%), 5/12 (42%), 54%, p<0.02 and 11/12 (92%), 6/15 (40%), 57%, p<0.01	9/12 (75%), 3/12 (25%), 67%, p<0.02 and 9/12 (75%), 5/15 (33%), 56%, p<0.02
